Experimental data: patent US9670227B2, “Thienopyrimidine derivatives, a process for their preparation and pharmaceutical compositions containing them” (LES LABORATOIRES SERVIER, priority 2013, dated 2017)
Like-named read-outs stand apart in the source and are kept apart here.

Tests used:
[1] = test system: H929 multiple myeloma tumour line; assay: In vitro cytotoxicity, Microculture Tetrazolium Assay; type: cell-based; settings: H929 cells, 48 hours exposure, MTT, read-out: IC50 (μM) MTT H929
Method: The cytotoxicity studies were carried out on the H929 multiple myeloma tumour line.
The cells are distributed onto microplates and exposed to the test compounds for 48 hours.

Mcl-1 protein = Mcl-1 protein (UniProtKB primary accession number: Q07820) (Homo sapiens, UniProt Q07820); assay: Inhibition of Mcl-1 by fluorescence polarisation, Method 1; type: binding; settings: fluorescence polarisation; Method 1, or Method 2; read-out: IC50 (M) Mcl-1 FP
In short: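 Binding was measured as fluorescence polarisation of a fluorescein-labelled ligand (1 nM) displaced from Mcl-1 (5 nM), both final. Compounds ran as 11-point series with final DMSO at 5%.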

Mcl-1 protein, sequence (Q07820 whole entry): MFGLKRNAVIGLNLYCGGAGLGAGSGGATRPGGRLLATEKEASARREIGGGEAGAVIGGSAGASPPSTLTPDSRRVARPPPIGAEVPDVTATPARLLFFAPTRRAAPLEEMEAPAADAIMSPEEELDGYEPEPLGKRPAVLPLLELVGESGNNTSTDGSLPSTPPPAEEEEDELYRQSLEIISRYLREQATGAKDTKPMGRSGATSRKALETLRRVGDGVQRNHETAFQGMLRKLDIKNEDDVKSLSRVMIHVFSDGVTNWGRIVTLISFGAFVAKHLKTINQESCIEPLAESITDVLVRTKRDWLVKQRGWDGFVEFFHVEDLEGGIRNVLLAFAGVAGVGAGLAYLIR

COc1ccccc1CC(Oc1ncnc2sc(-c3cc(F)c(F)c(F)c3F)c(-c3ccc(OCCN4CCN(C)CC4)c(Cl)c3C)c12)C(=O)O [Example 525, (2R)-2-{[(5Sa)-5-{3-chloro-2-methyl-4-[2-(4-methylpiperazin-1-yl)ethoxy]phenyl}-6-(2,3,4,5-tetrafluorophenyl)thieno[2,3-d]pyrimidin-4-yl]oxy}-3-(2-methoxyphenyl)propanoic acid]
IC50 ([1]; Homo sapiens, NCI-H929, 48 h): 0.755 µM
IC50 (Mcl-1 protein): 3.3e-09 M

COc1ccccc1CC(Oc1ncnc2sc(-c3cc(F)cc(Cl)c3)c(-c3ccc(OCCN4CCN(C)CC4)c(Cl)c3C)c12)C(=O)O [Example 526, (2R)-2-{[6-(3-chloro-5-fluorophenyl)-(5Sa)-5-{3-chloro-2-methyl-4-[2-(4-methylpiperazin-1-yl)ethoxy]phenyl}thieno[2,3-d]pyrimidin-4-yl]oxy}-3-(2-methoxyphenyl)propanoic acid]
IC50 ([1]; Homo sapiens, NCI-H929, 48 h): 0.835 µM
IC50 (Mcl-1 protein): 4.1e-09 M

COc1ccccc1CC(Oc1ncnc2sc(-c3cc(F)cc(F)c3)c(-c3ccc(OCCN4CCN(C)CC4)c(Cl)c3C)c12)C(=O)O [Example 527, (2R)-2-{[(5Sa)-5-{3-chloro-2-methyl-4-[2-(4-methylpiperazin-1-yl)ethoxy]phenyl}-6-(3,5-difluorophenyl)thieno[2,3-d]pyrimidin-4-yl]oxy}-3-(2-methoxyphenyl)propanoic acid]
IC50 ([1]; Homo sapiens, NCI-H929, 48 h): 0.272 µM
IC50 (Mcl-1 protein): 7.1e-08 M

COc1cc(F)cc(-c2sc3ncnc(OC(Cc4ccccc4OC)C(=O)O)c3c2-c2ccc(OCCN3CCN(C)CC3)c(Cl)c2C)c1 [Example 528, (2R)-2-{[(5Sa)-5-{3-chloro-2-methyl-4-[2-(4-methylpiperazin-1-yl)ethoxy]phenyl}-6-(3-fluoro-5-methoxyphenyl)thieno[2,3-d]pyrimidin-4-yl]oxy}-3-(2-methoxyphenyl)propanoic acid]
IC50 ([1]; Homo sapiens, NCI-H929, 48 h): 0.334 µM
IC50 (Mcl-1 protein): 1.6e-08 M

COc1ccccc1CC(Oc1ncnc2sc(-c3cc(C)co3)c(-c3ccc(OCCN4CCN(C)CC4)c(Cl)c3C)c12)C(=O)O [Example 529, (2R)-2-{[(5Sa)-5-{3-chloro-2-methyl-4-[2-(4-methylpiperazin-1-yl)ethoxy]phenyl}-6-(4-methylfuran-2-yl)thieno[2,3-d]pyrimidin-4-yl]oxy}-3-(2-methoxyphenyl)propanoic acid]
IC50 ([1]; Homo sapiens, NCI-H929, 48 h): 0.308 µM
IC50 (Mcl-1 protein): 1.3e-08 M

COc1ccccc1CC(Oc1ncnc2sc(-c3cc4sccc4s3)c(-c3ccc(OCCN4CCN(C)CC4)c(Cl)c3C)c12)C(=O)O [Example 530, (2R)-2-{[(5Sa)-5-{3-chloro-2-methyl-4-[2-(4-methylpiperazin-1-yl)ethoxy]phenyl}-6-(thieno[3,2-b]thiophen-2-yl)thieno[2,3-d]pyrimidin-4-yl]oxy}-3-(2-methoxyphenyl)propanoic acid]
IC50 ([1]; Homo sapiens, NCI-H929, 48 h): 1.59 µM
IC50 (Mcl-1 protein): 1.2e-07 M

COc1ccccc1CC(Oc1ncnc2sc(-c3ccc(F)c(C(F)(F)F)c3)c(-c3ccc(OCCN4CCN(C)CC4)c(Cl)c3C)c12)C(=O)O [Example 531, (2R)-2-[(5Sa)-(5-{3-chloro-2-methyl-4-[2-(4-methylpiperazin-1-yl)ethoxy]phenyl}-6-[4-fluoro-3-(trifluoromethyl)phenyl]thieno[2,3-d]pyrimidin-4-yl)oxy]-3-(2-methoxyphenyl)propanoic acid]
IC50 ([1]; Homo sapiens, NCI-H929, 48 h): 1.22 µM
IC50 (Mcl-1 protein): 3.5e-09 M

COc1ccccc1CC(Oc1ncnc2sc(-c3ccc(F)c(Cl)c3)c(-c3ccc(OCCN4CCN(C)CC4)c(Cl)c3C)c12)C(=O)O [Example 532, (2R)-2-{[6-(3-chloro-4-fluorophenyl)-(5Sa)-5-{3-chloro-2-methyl-4-[2-(4-methylpiperazin-1-yl)ethoxy]phenyl}thieno[2,3-d]pyrimidin-4-yl]oxy}-3-(2-methoxyphenyl)propanoic acid]
IC50 ([1]; Homo sapiens, NCI-H929, 48 h): 0.323 µM
IC50 (Mcl-1 protein): 5.9e-08 M

COc1ccccc1C[C@@H](Oc1ncnc2sc(-c3ccc(F)c(F)c3)c(-c3ccc(OCCN4CCN(C)CC4)c(Cl)c3C)c12)C(=O)O [Example 533, (2R)-2-{[(5Sa)-5-{3-chloro-2-methyl-4-[2-(4-methylpiperazin-1-yl)ethoxy]phenyl}-6-(3,4-difluorophenyl)thieno[2,3-d]pyrimidin-4-yl]oxy}-3-(2-methoxyphenyl)propanoic acid]
IC50 [1]: 0.201 µM
IC50 (Mcl-1 protein): 2.8e-08 M

COc1ccccc1CC(Oc1ncnc2sc(-c3ccc(F)c(O)c3)c(-c3ccc(OCCN4CCN(C)CC4)c(Cl)c3C)c12)C(=O)O [Example 534, (2R)-2-{[(5Sa)-5-{3-chloro-2-methyl-4-[2-(4-methylpiperazin-1-yl)ethoxy]phenyl}-6-(4-fluoro-3-hydroxyphenyl)thieno[2,3-d]pyrimidin-4-yl]oxy}-3-(2-methoxyphenyl)propanoic acid]
IC50 ([1]; Homo sapiens, NCI-H929, 48 h): 0.413 µM
IC50 (Mcl-1 protein): 1.6e-08 M

COc1ccccc1CC(Oc1ncnc2sc(-c3ccc(F)c(OCC(F)(F)F)c3)c(-c3ccc(OCCN4CCN(C)CC4)c(Cl)c3C)c12)C(=O)O [Example 535, (2R)-2-[(5Sa)-5-{3-chloro-2-methyl-4-[2-(4-methylpiperazin-1-yl)ethoxy]phenyl}-6-[4-fluoro-3-(2,2,2-trifluoroethoxy)phenyl]thieno[2,3-d]pyrimidin-4-yl)oxy]-3-(2-methoxyphenyl)propanoic acid]
IC50 ([1]; Homo sapiens, NCI-H929, 48 h): 1.84 µM
IC50 (Mcl-1 protein): 1.3e-07 M

COc1ccccc1C[C@@H](Oc1ncnc2sc(-c3ccc(F)c(Cl)c3F)c(-c3ccc(OCCN4CCN(C)CC4)c(Cl)c3C)c12)C(=O)O [Example 536, (2R)-2-{[6-(3-chloro-2,4-difluorophenyl)-(5Sa)-5-{3-chloro-2-methyl-4-[2-(4-methylpiperazin-1-yl)ethoxy]phenyl}thieno[2,3-d]pyrimidin-4-yl]oxy}-3-(2-methoxyphenyl)propanoic acid]
IC50 [1]: 0.797 µM
IC50 (Mcl-1 protein): 7.7e-08 M

COc1ccccc1CC(Oc1ncnc2sc(-c3ccc(C)cc3)c(-c3ccc(OCCN4CCN(C)CC4)c(Cl)c3C)c12)C(=O)O [Example 538, (2R)-2-{[(5Sa)-5-{3-chloro-2-methyl-4-[2-(4-methylpiperazin-1-yl)ethoxy]phenyl}-6-(4-methylphenyl)thieno[2,3-d]pyrimidin-4-yl]oxy}-3-(2-methoxyphenyl)propanoic acid]
IC50 ([1]; Homo sapiens, NCI-H929, 48 h): 0.672 µM
IC50 (Mcl-1 protein): 4.7e-08 M

COc1ccccc1CC(Oc1ncnc2sc(-c3ccc(Cl)cc3)c(-c3ccc(OCCN4CCN(C)CC4)c(Cl)c3C)c12)C(=O)O [Example 539, (2R)-2-{[(5Sa)-5-{3-chloro-2-methyl-4-[2-(4-methylpiperazin-1-yl)ethoxy]phenyl}-6-(4-chlorophenyl)thieno[2,3-d]pyrimidin-4-yl]oxy}-3-(2-methoxyphenyl)propanoic acid]
IC50 ([1]; Homo sapiens, NCI-H929, 48 h): 0.731 µM
IC50 (Mcl-1 protein): 7.2e-08 M

COc1ccccc1CC(Oc1ncnc2sc(-c3ccc(F)cc3F)c(-c3ccc(OCCN4CCN(C)CC4)c(Cl)c3C)c12)C(=O)O [Example 540, (2R)-2-{[(5Sa)-5-{3-chloro-2-methyl-4-[2-(4-methylpiperazin-1-yl)ethoxy]phenyl}-6-(2,4-difluorophenyl)thieno[2,3-d]pyrimidin-4-yl]oxy}-3-(2-methoxyphenyl)propanoic acid]
IC50 ([1]; Homo sapiens, NCI-H929, 48 h): 0.311 µM
IC50 (Mcl-1 protein): 3.2e-09 M

COc1ccccc1CC(Oc1ncnc2sc(-c3ccc(C)o3)c(-c3ccc(OCCN4CCN(C)CC4)c(Cl)c3C)c12)C(=O)O [Example 541, (2R)-2-{[(5Sa)-5-{3-chloro-2-methyl-4-[2-(4-methylpiperazin-1-yl)ethoxy]phenyl}-6-(5-methylfuran-2-yl)thieno[2,3-d]pyrimidin-4-yl]oxy}-3-(2-methoxyphenyl)propanoic acid]
IC50 ([1]; Homo sapiens, NCI-H929, 48 h): 0.329 µM
IC50 (Mcl-1 protein): 2.9e-08 M

CCc1ccc(-c2sc3ncnc(OC(Cc4ccccc4OC)C(=O)O)c3c2-c2ccc(OCCN3CCN(C)CC3)c(Cl)c2C)o1 [Example 543, (2R)-2-{[(5Sa)-5-{3-chloro-2-methyl-4-[2-(4-methylpiperazin-1-yl)ethoxy]phenyl}-6-(5-ethylfuran-2-yl)thieno[2,3-d]pyrimidin-4-yl]oxy}-3-(2-methoxyphenyl)propanoic acid]
IC50 ([1]; Homo sapiens, NCI-H929, 48 h): 0.766 µM
IC50 (Mcl-1 protein): 4.2e-08 M

COc1ccc(-c2sc3ncnc(OC(Cc4ccccc4OC)C(=O)O)c3c2-c2ccc(OCCN3CCN(C)CC3)c(Cl)c2C)o1 [Example 544, (2R)-2-{[(5Sa)-5-{3-chloro-2-methyl-4-[2-(4-methylpiperazin-1-yl)ethoxy]phenyl}-6-(5-methoxyfuran-2-yl)thieno[2,3-d]pyrimidin-4-yl]oxy}-3-(2-methoxyphenyl)propanoic acid]
IC50 ([1]; Homo sapiens, NCI-H929, 48 h): 0.274 µM
IC50 (Mcl-1 protein): 1.4e-08 M

COc1ccccc1CC(Oc1ncnc2sc(-c3cccc([N+](=O)[O-])c3)c(-c3ccc(OCCN4CCN(C)CC4)c(Cl)c3C)c12)C(=O)O [Example 545, (2R)-2-{[(5Sa)-5-{3-chloro-2-methyl-4-[2-(4-methylpiperazin-1-yl)ethoxy]phenyl}-6-(3-nitrophenyl)thieno[2,3-d]pyrimidin-4-yl]oxy}-3-(2-methoxyphenyl)propanoic acid]
IC50 ([1]; Homo sapiens, NCI-H929, 48 h): 1.1 µM
IC50 (Mcl-1 protein): 3.9e-08 M

COc1ccccc1CC(Oc1ncnc2sc(-c3cccc(C)c3)c(-c3ccc(OCCN4CCN(C)CC4)c(Cl)c3C)c12)C(=O)O [Example 546, (2R)-2-{[(5Sa)-5-{3-chloro-2-methyl-4-[2-(4-methylpiperazin-1-yl)ethoxy]phenyl}-6-(3-methylphenyl)thieno[2,3-d]pyrimidin-4-yl]oxy}-3-(2-methoxyphenyl)propanoic acid]
IC50 ([1]; Homo sapiens, NCI-H929, 48 h): 0.416 µM
IC50 (Mcl-1 protein): 1.7e-08 M

C#Cc1cccc(-c2sc3ncnc(OC(Cc4ccccc4OC)C(=O)O)c3c2-c2ccc(OCCN3CCN(C)CC3)c(Cl)c2C)c1 [Example 547, (2R)-2-{[(5Sa)-5-{3-chloro-2-methyl-4-[2-(4-methylpiperazin-1-yl)ethoxy]phenyl}-6-(3-ethynylphenyl)thieno[2,3-d]pyrimidin-4-yl]oxy}-3-(2-methoxyphenyl)propanoic acid]
IC50 ([1]; Homo sapiens, NCI-H929, 48 h): 0.475 µM
IC50 (Mcl-1 protein): 3.3e-08 M
